# From patent US20050112573A1, “Method of detecting toxic substance” (priority 2001, published 2005)
# System: yeast genes (level of expressed mRNA)
# Assay: DNA chip analysis of expressed mRNA of yeast genes after 2 h culture with a toxic chemical substance
# Type: cell-based, Saccharomyces cerevisiae S288C
# Experimental: Yeast (Saccharomyces cerevtisiae S288C (α SUC2mal mel gap2 CUP1)) were cultured at 25° C. on YPD medium (yeast extract 1%, polypepton 2%, glucose 2%). One of toxic chemical substances was added to the cell at logarithmic growth phase, and the cell was further cultured for two hours. Cell was cultured without any chemical substance in the same condition, and was used as control. Concentrations of the chemical substances were defined to inhibit the growth of the yeast but not lead to death.
# After the completion of cultivation, the culture was centrifuged to collect the cells. To the cells, sodium acetate buffer (50 mM sodium acetate, 10 mM EDTA, 1% SDS) was added, and the mixture was shaken at 65° C. for five minutes, followed by returning to room temperature, and obtaining the supernatant, which procedure was repeated two times. To the supernatant, ½ amount of a solution of phenol/chloroform was added, and the mixture was centrifuged to give a supernatant, which was added with an equal amount of chloroform, and the mixture was centrifuged to give a supernatant. To the supernatant, an equal amount of isopropanol containing 0.3 M sodium acetate was added, and the mixture was allowed to stand at room temperature for 30 minutes, after which the mixture was centrifuged to give a sediment of the whole RNAs. Seventy % ethanol was added to the sediment, and the mixture was again centrifuged to give a sediment, which was then dried and dissolved in water. mRNA was isolated from the whole RNAs as followings. In view of the fact that a poly A chain is attached to the 3′ terminus of mRNA, a polynucleotide having a poly T structure which was immobilized on the surface of latex beads was used to trap the mRNA, and then the mRNA was washed and eluted with spine column (Oligotex-dT30<Super>mRNA Purification Kit, Takara). Reverse transcription of the mRNA was conducted with a reverse transcriptase (Super Script II Reverse Transcriptase; catalogue No. 18064-014, GibcoBRL) using fluorescence-labeled nucleotides to give cDNAs that were introduced with Cy3-dUTP or Cy5-dUTP during the reverse transcription.
# The labeled cDNAs were dissolved in TE buffer (10 mM Tris-HCl/1 mM EDTA, pH8.0), and the solution was dropped on the DNA chip containing the whole genes of yeast (DNA Chip Research Inc. Japan) so that the cDNAs were hybridized on the DNA chip at 65° C. for over 12 hours. The fluoresces intensity of the DNA chip was read with a scanner, and the ratio relative to the fluorescence intensity resulting from the absence of chemical substance was estimated as the following, which is shown in Tables 1 to 9: [formula]
# In the Tables, “Intensity” indicated in the rightmost column is a value of the level of expressed mRNA of each gene in control cells as divided by the average level of the expressions of the whole genes.
compound,measurement,setting,value
"CCCCC[C@H](O)CC(=O)CCc1ccc(O)c(OC)c1 [(13), gingerol]",level of expressed mRNA in the presence of chemical substance/in its absence,gene YGR282C,1.2
same,The level of expressed mRNA in the presence of chemical substance/absence: YGR293C,gene YGR293C,0.7
same,The level of expressed mRNA in the presence of chemical substance/absence: YHL006C,gene YHL006C,1.1
same,The level of expressed mRNA in the presence of chemical substance/absence: YHL021C,gene YHL021C,2.6
same,The level of expressed mRNA in the presence of chemical substance/absence: YHL037C,gene YHL037C,1.0
same,level of expressed mRNA in the presence of chemical substance/in its absence,gene YHR037W,1.1
same,The level of expressed mRNA in the presence of chemical substance/absence: YHR083W,gene YHR083W,1.1
same,level of expressed mRNA in the presence of chemical substance/in its absence,gene YHR092C,0.5
same,The level of expressed mRNA in the presence of chemical substance/absence: YHR095W,gene YHR095W,0.7
same,The level of expressed mRNA in the presence of chemical substance/absence: YHR105W,gene YHR105W,1.4
same,The level of expressed mRNA in the presence of chemical substance/absence: YHR134W,gene YHR134W,1.2
same,level of expressed mRNA in the presence of chemical substance/in its absence,gene YHR137W,0.6
same,The level of expressed mRNA in the presence of chemical substance/absence: YHR180W,gene YHR180W,1.3
same,The level of expressed mRNA in the presence of chemical substance/absence: YHR181W,gene YHR181W,0.7
same,level of expressed mRNA in the presence of chemical substance/in its absence,gene YHR190W,1.7
same,level of expressed mRNA in the presence of chemical substance/in its absence,gene YIL033C,2.5
same,The level of expressed mRNA in the presence of chemical substance/absence: YIL108W,gene YIL108W,1.3
same,The level of expressed mRNA in the presence of chemical substance/absence: YIL127C,gene YIL127C,0.4
same,level of expressed mRNA in the presence of chemical substance/in its absence,gene YIL154C,1.7
same,The level of expressed mRNA in the presence of chemical substance/absence: YIL165C,gene YIL165C,1.5
same,level of expressed mRNA in the presence of chemical substance/in its absence,gene YIL167W,1.2
same,level of expressed mRNA in the presence of chemical substance/in its absence,gene YIR035C,1.1
same,The level of expressed mRNA in the presence of chemical substance/absence: YJL017W,gene YJL017W,1.5
same,The level of expressed mRNA in the presence of chemical substance/absence: YJL032W,gene YJL032W,1.4
same,The level of expressed mRNA in the presence of chemical substance/absence: YJL037W,gene YJL037W,1.1
same,The level of expressed mRNA in the presence of chemical substance/absence: YJL049W,gene YJL049W,0.9
same,level of expressed mRNA in the presence of chemical substance/in its absence,gene YJL088W,1.0
same,The level of expressed mRNA in the presence of chemical substance/absence: YJL097W,gene YJL097W,0.7
same,level of expressed mRNA in the presence of chemical substance/in its absence,gene YJL132W,1.3
same,level of expressed mRNA in the presence of chemical substance/in its absence,gene YJL196C,0.6
same,The level of expressed mRNA in the presence of chemical substance/absence: YJR030C,gene YJR030C,0.7
same,The level of expressed mRNA in the presence of chemical substance/absence: YJR044C,gene YJR044C,2.0
same,level of expressed mRNA in the presence of chemical substance/in its absence,gene YJR142W,1.6
same,level of expressed mRNA in the presence of chemical substance/in its absence,gene YJR148W,1.1
same,level of expressed mRNA in the presence of chemical substance/in its absence,gene YJR159W,2.1
same,The level of expressed mRNA in the presence of chemical substance/absence: YKL051W,gene YKL051W,1.2
same,The level of expressed mRNA in the presence of chemical substance/absence: YKL059C,gene YKL059C,1.3
same,level of expressed mRNA in the presence of chemical substance/in its absence,gene YKL067W,1.7
same,The level of expressed mRNA in the presence of chemical substance/absence: YKL090W,gene YKL090W,0.8
same,The level of expressed mRNA in the presence of chemical substance/absence: YKL094W,gene YKL094W,1.7
same,The level of expressed mRNA in the presence of chemical substance/absence: YKL097C,gene YKL097C,0.9
same,The level of expressed mRNA in the presence of chemical substance/absence: YKL100C,gene YKL100C,1.3
same,level of expressed mRNA in the presence of chemical substance/in its absence,gene YKR039W,1.3
same,The level of expressed mRNA in the presence of chemical substance/absence: YKR040C,gene YKR040C,0.6
same,The level of expressed mRNA in the presence of chemical substance/absence: YLR097C,gene YLR097C,1.1
same,level of expressed mRNA in the presence of chemical substance/in its absence,gene YLR142W,1.2
same,level of expressed mRNA in the presence of chemical substance/in its absence,gene YLR180W,0.6
same,The level of expressed mRNA in the presence of chemical substance/absence: YLR226W,gene YLR226W,0.7
same,level of expressed mRNA in the presence of chemical substance/in its absence,gene YLR273C,1.7
same,level of expressed mRNA in the presence of chemical substance/in its absence,gene YLR300W,0.2
same,level of expressed mRNA in the presence of chemical substance/in its absence,gene YLR307W,1.0
same,The level of expressed mRNA in the presence of chemical substance/absence: YLR338W,gene YLR338W,1.2
same,The level of expressed mRNA in the presence of chemical substance/absence: YLR339C,gene YLR339C,0.1
same,The level of expressed mRNA in the presence of chemical substance/absence: YLR392C,gene YLR392C,1.4
same,The level of expressed mRNA in the presence of chemical substance/absence: YLR415C,gene YLR415C,1.0
same,The level of expressed mRNA in the presence of chemical substance/absence: YLR427W,gene YLR427W,2.5
same,The level of expressed mRNA in the presence of chemical substance/absence: YML013W,gene YML013W,1.2
same,The level of expressed mRNA in the presence of chemical substance/absence: YML029W,gene YML029W,2.0
same,The level of expressed mRNA in the presence of chemical substance/absence: YML041C,gene YML041C,1.2
same,The level of expressed mRNA in the presence of chemical substance/absence: YML079W,gene YML079W,1.6
same,level of expressed mRNA in the presence of chemical substance/in its absence,gene YML110C,1.8
same,The level of expressed mRNA in the presence of chemical substance/absence: YML118W,gene YML118W,1.7
same,The level of expressed mRNA in the presence of chemical substance/absence: YMR068W,gene YMR068W,1.4
same,The level of expressed mRNA in the presence of chemical substance/absence: YMR071C,gene YMR071C,1.3
same,level of expressed mRNA in the presence of chemical substance/in its absence,gene YMR105C,3.3
same,The level of expressed mRNA in the presence of chemical substance/absence: YMR114C,gene YMR114C,1.1
same,The level of expressed mRNA in the presence of chemical substance/absence: YMR115W,gene YMR115W,1.3
same,The level of expressed mRNA in the presence of chemical substance/absence: YMR160W,gene YMR160W,1.6
same,level of expressed mRNA in the presence of chemical substance/in its absence,gene YMR189W,0.9
same,The level of expressed mRNA in the presence of chemical substance/absence: YMR258C,gene YMR258C,1.6
same,level of expressed mRNA in the presence of chemical substance/in its absence,gene YMR271C,3.6
same,level of expressed mRNA in the presence of chemical substance/in its absence,gene YMR272C,1.2
same,level of expressed mRNA in the presence of chemical substance/in its absence,gene YMR296C,0.9
same,level of expressed mRNA in the presence of chemical substance/in its absence,gene YNL012W,2.9
same,The level of expressed mRNA in the presence of chemical substance/absence: YNL026W,gene YNL026W,1.7
same,level of expressed mRNA in the presence of chemical substance/in its absence,gene YNL037C,1.9
same,level of expressed mRNA in the presence of chemical substance/in its absence,gene YNL045W,2.6
same,The level of expressed mRNA in the presence of chemical substance/absence: YNL058C,gene YNL058C,0.6
same,The level of expressed mRNA in the presence of chemical substance/absence: YNL063W,gene YNL063W,1.5
same,level of expressed mRNA in the presence of chemical substance/in its absence,gene YNL104C,2.1
same,level of expressed mRNA in the presence of chemical substance/in its absence,gene YNL106C,0.9
same,level of expressed mRNA in the presence of chemical substance/in its absence,gene YNL130C,1.9
same,level of expressed mRNA in the presence of chemical substance/in its absence,gene YNL169C,1.7
same,The level of expressed mRNA in the presence of chemical substance/absence: YNL176C,gene YNL176C,0.6
same,The level of expressed mRNA in the presence of chemical substance/absence: YNL181W,gene YNL181W,1.8
same,The level of expressed mRNA in the presence of chemical substance/absence: YNL191W,gene YNL191W,0.6
same,The level of expressed mRNA in the presence of chemical substance/absence: YNL194C,gene YNL194C,1.5
same,The level of expressed mRNA in the presence of chemical substance/absence: YNL200C,gene YNL200C,1.1
same,The level of expressed mRNA in the presence of chemical substance/absence: YNL212W,gene YNL212W,1.3
same,level of expressed mRNA in the presence of chemical substance/in its absence,gene YNL231C,2.9
same,The level of expressed mRNA in the presence of chemical substance/absence: YNL253W,gene YNL253W,1.1
same,The level of expressed mRNA in the presence of chemical substance/absence: YNL265C,gene YNL265C,2.0
same,The level of expressed mRNA in the presence of chemical substance/absence: YNL276C,gene YNL276C,1.5
same,level of expressed mRNA in the presence of chemical substance/in its absence,gene YNL322C,0.8
same,level of expressed mRNA in the presence of chemical substance/in its absence,gene YNR002C,2.1
same,level of expressed mRNA in the presence of chemical substance/in its absence,gene YNR019W,2.1
same,level of expressed mRNA in the presence of chemical substance/in its absence,gene YNR033W,3.8
same,The level of expressed mRNA in the presence of chemical substance/absence: YNR051C,gene YNR051C,2.1
same,level of expressed mRNA in the presence of chemical substance/in its absence,gene YNR059W,2.4
same,The level of expressed mRNA in the presence of chemical substance/absence: YOL026C,gene YOL026C,1.2
same,The level of expressed mRNA in the presence of chemical substance/absence: YOL030W,gene YOL030W,1.7
same,level of expressed mRNA in the presence of chemical substance/in its absence,gene YOL058W,1.2
same,level of expressed mRNA in the presence of chemical substance/in its absence,gene YOL126C,2.6
same,level of expressed mRNA in the presence of chemical substance/in its absence,gene YOL143C,1.2
same,level of expressed mRNA in the presence of chemical substance/in its absence,gene YOL153C,2.9
same,level of expressed mRNA in the presence of chemical substance/in its absence,gene YOL157C,1.4
same,The level of expressed mRNA in the presence of chemical substance/absence: YOR022C,gene YOR022C,1.7
same,The level of expressed mRNA in the presence of chemical substance/absence: YOR087W,gene YOR087W,1.2
same,The level of expressed mRNA in the presence of chemical substance/absence: YOR088W,gene YOR088W,0.4
same,level of expressed mRNA in the presence of chemical substance/in its absence,gene YOR099W,1.6
same,level of expressed mRNA in the presence of chemical substance/in its absence,gene YOR130C,2.1
same,level of expressed mRNA in the presence of chemical substance/in its absence,gene YOR136W,1.5
same,The level of expressed mRNA in the presence of chemical substance/absence: YOR138C,gene YOR138C,1.8
same,The level of expressed mRNA in the presence of chemical substance/absence: YOR253W,gene YOR253W,0.5
